Patent publication US20050261273A1, “Substituted urea and carbamate, phenacyl-2-hydroxy-3-diaminoalkane, and benzamide-2-hydroxy-3-diaminoalkane aspartyl-protease inhibitors” (priority 2004, published 2005)

What follows are molecules tested against cathepsin D (catD) versus beta-secretase (BACE) (Homo sapiens, UniProt P07339) (assay: CatD/BACE selectivity (ratio of IC50 values)). Details: each value is an average of four experimental runs; multiple values = more than one experiment.
Format: biochemical
Experimental: (§1) Investigation of potential beta-secretase inhibitors produced compounds with increased selectivity for beta-secretase over other aspartyl proteases such as cathepsin D (catD), cathepsin E (catE), Human Immunodeficiency Viral (HIV) protease, and renin. Selectivity was calculated as a ratio of inhibition (IC50) values in which the inhibition of beta-secretase was compared to the inhibition of other aspartyl proteases.
The compounds of formula (I) can be selective for beta-secretase versus catD.
(§2) In the following examples, each value is an average of four experimental runs and multiple values for one compoundd indicate that more than one experiment was conducted.

cathepsin D (catD) versus beta-secretase (BACE), sequence (P07339 65-412): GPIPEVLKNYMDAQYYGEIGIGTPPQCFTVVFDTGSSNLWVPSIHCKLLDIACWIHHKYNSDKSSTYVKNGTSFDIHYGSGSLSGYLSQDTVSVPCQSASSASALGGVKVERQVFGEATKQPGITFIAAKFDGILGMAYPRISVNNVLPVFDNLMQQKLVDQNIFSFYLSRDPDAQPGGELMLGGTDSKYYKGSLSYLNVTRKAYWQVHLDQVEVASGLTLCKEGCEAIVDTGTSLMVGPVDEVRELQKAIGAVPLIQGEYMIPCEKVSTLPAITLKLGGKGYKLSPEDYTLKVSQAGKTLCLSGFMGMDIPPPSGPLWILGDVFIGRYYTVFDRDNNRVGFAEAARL

Structure (SMILES) | IC50 CatD/IC50 BACE
CN(c1cccc(C(=O)NC(Cc2cc(F)cc(F)c2)C(O)CNC2(c3cccc(C(C)(C)C)c3)CCCCC2)c1)S(C)(=O)=O (stereo not drawn) [Example 325A-2] | 3.1
CC(C)(C)c1cccc(C2(NCC(O)C(Cc3cc(F)cc(F)c3)NC(=O)COCC(=O)O)CCCCC2)c1 (stereo not drawn) [Example 325A-3] | 2.0
CC(C)(C)c1cccc(C2(NCC(O)C(Cc3cc(F)cc(F)c3)NC(=O)CCCC(=O)O)CCCCC2)c1 (stereo not drawn) [Example 325A-4] | 1.9
CC(C)(CCC(=O)NC(Cc1cc(F)cc(F)c1)C(O)CNC1(c2cccc(C(C)(C)C)c2)CCCCC1)C(=O)O (stereo not drawn) [Example 325A-5] | 1.7
CC(C)(C)c1cccc(C2(NCC(O)C(Cc3cc(F)cc(F)c3)NC(=O)c3csc(NS(C)(=O)=O)n3)CCCCC2)c1 (stereo not drawn) [Example 325A-6] | 5.0

The molecules below were run against T1, cathepsin E (catE) versus beta-secretase (BACE) (Homo sapiens, UniProt P14091) (assay: CatE/BACE selectivity (ratio of IC50 values)). Details: each value is an average of four experimental runs; multiple values = more than one experiment.
T1 sequence (P14091 54-396): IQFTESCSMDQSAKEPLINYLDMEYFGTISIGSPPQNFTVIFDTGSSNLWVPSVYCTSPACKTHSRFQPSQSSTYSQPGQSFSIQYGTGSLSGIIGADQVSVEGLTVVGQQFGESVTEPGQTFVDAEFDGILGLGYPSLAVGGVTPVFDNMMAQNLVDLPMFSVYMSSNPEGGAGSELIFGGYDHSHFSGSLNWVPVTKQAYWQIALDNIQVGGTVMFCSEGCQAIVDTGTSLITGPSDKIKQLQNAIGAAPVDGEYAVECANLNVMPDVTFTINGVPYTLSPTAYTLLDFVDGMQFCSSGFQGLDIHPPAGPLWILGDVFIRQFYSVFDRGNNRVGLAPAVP
Format: biochemical
Experimental: as §1
The compounds of formula (I) can be selective for beta-secretase versus catE. […] Selectivity is reported as the ratio of IC50(catE):IC50(BACE).
as §2

Structure (SMILES) | IC50 CatE/IC50 BACE
CC(C)(CCC(=O)NC(Cc1cc(F)cc(F)c1)C(O)CNC1(c2cccc(C(C)(C)C)c2)CCCCC1)C(=O)O (stereo not drawn) [Example 325B-1] | 8.3
CC(C)(C)c1cccc(C2(NCC(O)C(Cc3cc(F)cc(F)c3)NC(=O)CCCC(=O)O)CCCCC2)c1 (stereo not drawn) [Example 325B-3] | 3.4
CC(C)(C)c1cccc(C2(NCC(O)C(Cc3cc(F)cc(F)c3)NC(=O)COCC(=O)O)CCCCC2)c1 (stereo not drawn) [Example 325B-4] | 3.2
CC(C)(C)c1cccc(C2(NCC(O)C(Cc3cc(F)cc(F)c3)NC(=O)c3csc(NS(C)(=O)=O)n3)CCCCC2)c1 (stereo not drawn) [Example 325B-5] | 1.2
